For orientation: IC50 means the concentration at which inhibition is half-maximal.

Structures are written as SMILES. Bounds are passed on as bounds.

For one assay, the target named is T1, Met kinase domain (GST fusion protein) (Homo sapiens, UniProt P08581).
T1 construct: Purified GST fusion protein containing the Met kinase domain
T1 sequence (P08581 1078-1345 limits assumed): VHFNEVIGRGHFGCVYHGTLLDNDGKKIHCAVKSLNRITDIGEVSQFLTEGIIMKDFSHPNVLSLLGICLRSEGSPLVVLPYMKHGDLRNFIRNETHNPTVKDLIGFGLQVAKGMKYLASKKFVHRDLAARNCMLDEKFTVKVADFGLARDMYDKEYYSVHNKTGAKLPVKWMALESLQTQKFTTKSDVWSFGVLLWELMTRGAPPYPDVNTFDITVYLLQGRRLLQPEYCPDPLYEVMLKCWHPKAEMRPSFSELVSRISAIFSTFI
The experiment in a line: Met transphosphorylation assay (ELISA, poly(glu-tyr) substrate).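 Also: Cell-free ELISA with plate-bound poly(Glu:Tyr 4:1) phosphorylated by GST-fused Met kinase domain plus ATP and Mn2+, phosphotyrosine detected by anti-phosphotyrosine antibody with HRP and ABTS read-out.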 It counts as biochemical. The following applies: Table 2; read-out: Met IC50. (In general: An ELISA detects its analyte on a solid surface through an enzyme-linked reagent.)
On to `CN1CCN(C(=O)c2cccc(-c3cnc(N)c(OCc4c(F)ccc(F)c4Cl)c3)c2)CC1` [Example I-226, {3-[6-Amino-5-(2-chloro-3,6-difluoro-benzyloxy)-pyridin-3-yl]-phenyl}-(4-methyl-piperazin-1-yl)-methanone], for which the IC50 came to 0.068 µM. Take `Nc1ncc(-c2cccc(C(=O)NCCN3CCOCC3)c2)cc1OCc1c(F)ccc(F)c1Cl` [Example I-237, 3-[6-Amino-5-(2-chloro-3,6-difluoro-benzyloxy)-pyridin-3-yl]-N-(2-morpholin-4-yl-ethyl)-benzamide]: the half-maximal inhibitory concentration (IC50) was determined as 0.35 µM. Still for that read-out and setting: with `Nc1ncc(-c2cccc(NS(=O)(=O)CCN3CC[C@@H](O)C3)c2)cc1OCc1c(F)ccc(F)c1Cl` [Example I-264, 2-[(3R)-3-Hydroxy-pyrrolidin-1-yl]-ethanesulfonic acid {3-[6-amino-5-(2-chloro-3,6-difluoro-benzyloxy)-pyridin-3-yl]-phenyl}-amide] the figure was 1.1 µM. As to `CC(Oc1cc(-c2cccc(C(=O)NCCCN3CCCC3)c2)cnc1N)c1c(F)ccc(F)c1Cl` (stereo not drawn) [Example I-347, 3-{6-Amino-5-[1-(2-chloro-3,6-difluoro-phenyl)-ethoxy]-pyridin-3-yl}-N-(3-pyrrolidin-1-yl-propyl)-benzamide], the IC50 was 0.21 µM.

On to `CC(Oc1cc(-c2ccc(OCC(O)CN3CCOCC3)cc2)cnc1N)c1c(Cl)ccc(F)c1Cl` (stereo not drawn) [Example I-359, 1-(4-{6-Amino-5-[1-(2,6-dichloro-3-fluoro-phenyl)-ethoxy]-pyridin-3-yl}-phenoxy)-3-morpholin-4-yl-propan-2-ol], for which the half-inhibitory concentration (IC50) turned out to be 0.045 µM.

Regarding `Nc1ncc(-c2cccc(NS(=O)(=O)CCNCC3CC3)c2)cc1OCc1c(F)ccc(F)c1Cl` [Example I-265, 2-(Cyclopropylmethyl-amino)-ethanesulfonic acid {3-[6-amino-5-(2-chloro-3,6-difluoro-benzyloxy)-pyridin-3-yl]-phenyl}-amide], the IC50 is 1 µM.

Consider `CC(Oc1cc(-c2cccc(C(=O)N3CC[C@@H](N)C3)c2)cnc1N)c1c(F)ccc(F)c1Cl` (stereo partly drawn) [Example I-344, (3-{6-Amino-5-[1-(2-chloro-3,6-difluoro-phenyl)-ethoxy]-pyridin-3-yl}-phenyl)-((R)-3-amino-pyrrolidin-1-yl)-methanone], for which the 50% inhibitory concentration (IC50) came out at 0.12 µM. The same measure, in the same setting: with `CC(Oc1cc(-c2ccc(C(=O)N3CCC[C@@H]3CO)cc2)cnc1N)c1c(Cl)ccc(F)c1Cl` (stereo partly drawn) [Example I-308, (4-{6-Amino-5-[1-(2,6-dichloro-3-fluoro-phenyl)-ethoxy]-pyridin-3-yl}-phenyl)-((R)-2-hydroxymethyl-pyrrolidin-1-yl)-methanone] the figure was 0.033 µM; with `CC(Oc1cc(-c2cccc(C(=O)N3CCC(N4CCCC4)CC3)c2)cnc1N)c1c(Cl)ccc(F)c1Cl` (stereo not drawn) [Example I-322, (3-{6-Amino-5-[1-(2,6-dichloro-3-fluoro-phenyl)-ethoxy]-pyridin-3-yl}-phenyl)-(4-pyrrolidin-1-yl-piperidin-1-yl)-methanone], 0.071 µM.

The assay is the same for the next values; noted with them: plain numbers in column Met IC50 (μM) of Table 2; read-out: Met IC50.
Turning to `CC(Oc1cc(-c2ccc(NC(=O)N3CC[C@H](N)C3)cc2)cnc1N)c1c(F)ccc(F)c1Cl` (stereo partly drawn) [Example I-380, (S)-3-Amino-pyrrolidine-1-carboxylic acid (4-{6-amino-5-[1-(2-chloro-3,6-difluoro-phenyl)-ethoxy}-pyridin-3-yl}-phenyl)-amide], the IC50 amounted to 0.075 µM. On the same count and under the same terms, for `CC(Oc1cc(-c2cccc(C(=O)N3C[C@@H](C)N[C@@H](C)C3)c2)cnc1N)c1c(Cl)cccc1Cl` (stereo partly drawn) [Example I-387, (3-{6-Aminno-5-[1-(2,6-dichloro-phenyl)-ethoxy]-pyridin-3-yl}-phenyl)-((3R,5S)-3,5-dimethyl-piperazin-1-yl)-methanone] the value was 0.16 µM; for `CC(Oc1cc(-c2ccccn2)cnc1N)c1c(Cl)ccc(F)c1Cl` (stereo not drawn) [Example I-523, 5′-[1-(2,6-Dichloro-3-fluoro-phenyl)-ethoxy]-[2,3′]bipyridinyl-6′-ylamine], 0.0677 µM. The same measure, in the same setting: for `CC(Oc1cc(C#CCNC(=O)N2CCC(N3CCCC3)CC2)cnc1N)c1c(Cl)ccc(F)c1Cl` (stereo not drawn) [Example I-414, 4-Pyrrolidin-1-yl-piperidine-1-carboxylic acid (3-{6-amino-5-[1-(2,6-dichloro-3-fluoro-phenyl)-ethoxy]-pyridin-3-yl}-prop-2-ynyl)-amide] the value was 0.058 µM; for `CC(Oc1cc(-c2ccc(C(=O)NCCN3CCOCC3)cc2)cnc1N)c1c(Cl)cccc1Cl` (stereo not drawn) [Example I-401, 4-{6-Amino-5-[1-(2,6-dichloro-phenyl)-ethoxy]-pyridin-3-yl}-N-(2-morpholin-4-yl-ethyl)-benzamide], 0.073 µM. With `CCCOc1cnc(N)c(OC(C)c2c(F)ccc(F)c2Cl)c1` (stereo not drawn) [Example I-533, 3-[1-(2-Chloro-3,6-difluoro-phenyl)-ethoxy]-5-propoxy-pyridin-2-ylamine], the 50% inhibitory concentration (IC50) turned out to be 0.672 µM.

As for `Nc1ccc(-c2cnc(N)c(OCc3ccc(Cl)cc3)c2)cn1` [Example I-499, 5-(4-Chloro-benzyloxy)-[3.3═]bipyridinyl-6,6′-diamine], the 50% inhibitory concentration (IC50) is above 20 µM. Same read-out and setting: with `CC(Oc1cc(-c2ccc(NC(=O)NCCN3CCCC3)cc2)cnc1N)c1c(Cl)ccc(F)c1Cl` (stereo not drawn) [Example I-372, 1-(4-{6-Amino-5-[1-(2,6-dichloro-3-fluoro-phenyl)-ethoxy]-pyridin-3-yl}-phenyl)-3-(2-pyrrolidin-1-yl-ethyl)-urea] the figure was 0.21 µM; with `CC(Oc1cc(C#CCNC(N)=O)cnc1N)c1c(Cl)ccc(F)c1Cl` (stereo not drawn) [Example I-423, (3-{6-Amino-5-[1-(2,6-dichloro-3-fluoro-phenyl)-pnlethoxy]-pyridin-3-yl}-prop-2-ynyl)-area], 0.062 µM; with `CC(Oc1cc(-c2cccc(C(=O)NCCCN3CCCC3)c2)cnc1N)c1c(Cl)cccc1Cl` (stereo not drawn) [Example I-392, 3-{6-Amino-5-[1-(2,6-dichloro-phenyl)-ethoxy]-pyridin-3-yl}-N-(3-pyrrolidin-1-yl-propyl)-benzamide], 0.072 µM.

The assay is the same for the next values; noted with them: read-out: Met IC50.
On to `Nc1ncc(-c2ccc[nH]2)cc1OCc1c(Cl)cccc1Cl` [Example I-7, 3-(2,6-Dichloro-benzyloxy)-5-(1H-pyrrol-2-yl)-pyridin-2-ylamine], for which the half-maximal inhibitory concentration (IC50) amounted to 4.25 µM. Still for that read-out and setting: for `CN1CCN(C(=O)c2ccccc2COc2cc(-c3ccc(NS(C)(=O)=O)cc3)cnc2N)CC1` [Example I-138, N-(4-{6-Amino-5-[2-(4-methyl-piperazine-1-carbonyl)-benzyloxy]-pyridin-3-yl}-phenyl)-methanesulfonamide] the value was above 20 µM; for `Nc1ncc(-c2ccc3[nH]cc(CN4CCCC4)c3c2)cc1OCc1c(Cl)cccc1Cl` [Example I-63, 3-(2,6-Dichloro-benzyloxy)-5-(3-pyrrolidin-1-ylmethyl-1H-indol-5-yl)-pyridin-2-ylamine], 1.34 µM.

Turning to `CC(Oc1nc(-c2ccc[nH]2)cnc1N)c1c(Cl)ccc(F)c1Cl` (stereo not drawn) [II-201, 3-[1-(2,6-Dichloro-3-fluoro-phenyl)-ethoxy]-5-(1H-pyrrol-2-yl)-pyrazin-2-ylamine], the IC50 came out at 0.22 µM. Still for that read-out and setting: with `Nc1ncc(-c2cccc(C(=O)O)c2)cc1OCc1c(Cl)cccc1Cl` [Example I-53, 3-[6-Amino-5-(2,6-dichloro-benzyloxy)-pyridin-3-yl]-benzoic acid] the figure was 16 µM; with `CC(C)CNC(=O)c1ccccc1COc1cc(-c2ccc(NS(C)(=O)=O)cc2)cnc1N` [Example I-140, 2-[2-Amino-5-(4-methanesulfonylamino-phenyl)-pyridin-3-yloxymethyl]-N-isobutyl-benzamide], above 20 µM; with `CN1CCC(c2c[nH]c3ccc(-c4cnc(N)c(OCc5c(Cl)cccc5Cl)c4)cc23)CC1` [Example I-60, 3-(2,6-Dichloro-benzyloxy)-5-[3-(1-methyl-piperidin-4-yl)-1H-indol-5-yl]-pyridin-2-ylamine], 3.04 µM. The same measure, in the same setting: for `CC(Oc1nc(-c2ccc(C(=O)NCCN3CCOCC3)cc2)cnc1N)c1c(Cl)cccc1Cl` (stereo not drawn) [II-158, 4-{5-Amino-6-[1-(2,6-dichloro-phenyl)-ethoxy]-pyrazin-2-yl}-N-(2-morpholin-4-yl-ethyl)-benzamide] the value was 0.32 µM; for `CC(=O)Nc1ccc(-c2cnc(N)c(OCc3c(Cl)cccc3Cl)c2)cc1` [Example I-14, N-{4-[6-Amino-5-(2,6-dichloro-benzyloxy)-pyridin-3-yl]-phenyl}-acetamide], above 20 µM; for `CC(Oc1nc(-c2ccc(NS(=O)(=O)CCN3CCN(C(=O)CO)CC3)cc2)cnc1N)c1c(F)ccc(F)c1Cl` (stereo not drawn) [II-120, 2-[4-(2-Hydroxy-acetyl)-piperazin-1-yl]-ethanesulfonic acid (4-{5-amino-6-[1-(2-chloro-3,6-difluoro-phenyl)-ethoxy]-pyrazin-2-yl}-phenyl)-amide], 0.19 µM.

With `C[C@@H]1CN(Cc2c[nH]c3ccc(-c4cnc(N)c(OCc5c(Cl)cccc5Cl)c4)cc23)C[C@H](C)O1` [Example I-66, 3-(2,6-Dichloro-benzyloxy)-5-[3-(2,6-dimethyl-morpholin-4-ylmethyl)-1H-indol-5-yl]-pyridin-2-ylamine], the half-maximal inhibitory concentration (IC50) is above 20 µM. For the compound `CC(=O)N[C@H]1CCN(Cc2c[nH]c3ccc(-c4cnc(N)c(OCc5c(F)ccc(F)c5Cl)c4)cc23)C1` [Example I-72, N-(1-{5-[6-Amino-5-(2-chloro-3,6-difluoro-benzyloxy)-pyridin-3-yl]-1H-indol-3-ylmethyl}-(3S)-pyrrolidin-3-yl)-acetamide], the IC50 turned out to be 0.95 µM. Same read-out and setting: for `CC(Oc1nc(-c2ccc(C(=O)N3CCN(C)CC3)cc2)cnc1N)c1c(Cl)cccc1Cl` (stereo not drawn) [II-163, (4-{5-Amino-6-[1-(2,6-dichloro-phenyl)-ethoxy]-pyrazin-2-yl}-phenyl)-(4-methyl-piperazin-1-yl)-methanone] the value was 0.15 µM; for `Nc1ncc(-c2cccc(C(=O)NCCCN3CCOCC3)c2)nc1OCc1c(F)ccc(F)c1Cl` [II-52, 3-[5-Amino-6-(2-chloro-3,6-difluoro-benzyloxy)-pyrazin-2-yl]-N-(3-morpholin-4-yl-propyl)-benzamide], 4.2 µM.

These data come from US20050009840A1 (SUGEN, INC., priority 2003, published 2005).
